Assay results published in patent US20170020798A1, “HESPERIDIN-CONTAINING COMPOSITIONS AND METHODS FOR TREATMENT OF SKIN DISORDERS” (The Regents of the University of California, priority 2015, published 2017).
Where a name gives a salt, the structure may show the parent alone.

Columns and labels:
[1] = cited from earlier work
aged murine skin = experiment: Epidermal function after topical hesperidin in aged mice (TEWL, barrier recovery, SC hydration, skin surface pH); format: in vivo, mouse
Procedure: (§1) All animal procedures were approved by the Animal Studies Subcommittee (IACUC) of the San Francisco Veterans Administration Medical Center and performed in accordance with their guidelines. Since hesperidin is not soluble in 100% ethanol, 70% ethanol was used as vehicle. Since the turnover time for […] is about 9.5 days in normal young mice, we chose to treat aged mice for 9 days. Both flanks of 12-15 month old mice were treated topically with 60 μl of 2% hesperidin or 70% ethanol twice daily for 9 days. Basal epidermal permeability barrier function was assessed by measuring transepidermal water loss (TEWL) using TM300 connected to MPA5 (C&K, Cologne, Germany). For barrier recovery, TEWL was measured using an electrolytic water analyzer (Meeco, Warrington, Pa.) at 0, 2 and 4 hours after tape stripping (10-fold increase in TEWL), and percent barrier recovery was calculated.

aged epidermis [2] = experiment: Gross appearance, histology and PCNA staining of aged mouse epidermis; format: in vivo; conditions: aged mice, 2% hesperidin topically twice daily for 9 days; NS vs. vehicle
Procedure: as §1
Immunohistochemical staining for assessing changes in epidermal differentiation was performed as follows. Briefly, 5 μm paraffin sections were incubated with the primary antibodies (Covance, Emeryville, Calif.) overnight at 4° C. […] Staining was detected with ABC-peroxidase kit from Vector Lab (Burlingame, Calif.). Sections were examined with a Zeiss fluorescence microscope (Jena, Germany) and digital images were captured with AxioVision software (Carl Zeiss Vision, Munich, Germany).

aged mouse epidermis = experiment: Q-PCR for mRNA expression in aged mouse epidermis; format: in vivo
[3] = tested on: keratinocytes isolated from adult human (donor aged 60-65 year old); experiment: Q-PCR for mRNA expression in adult human keratinocyte cultures; format: cell-based; conditions: 0.02% hesperidin
Procedure: Second-passage keratinocytes isolated from adult human (donor aged 60-65 year old) were cultured in serum-free keratinocyte growth medium containing 0.07 mM calcium (Clonetics, San Diego, Calif.). Cells at 60%-70% confluence were switched to a medium containing 1.2 mM calcium and treated with either 0.02% hesperidin or vehicle alone (0.02% ethanol). After 24 and 48 hrs of treatment, keratinocytes were collected for Q-PCR analysis.
Total RNA was isolated from cultured human keratinocytes using TRI Reagent (Sigma). First strand cDNA was synthesized from 1 ug of total RNA with the iScript cDNA Synthesis Kit (Bio-Rad, Hercules, Calif.). The real-time PCR contained 20 ng of reversed transcribed total RNA, 450 nM forward and reverse primers, and 10 μl of 2× LightCycler 480 SYBR Green I Master in a final volume of 20 μl in 96-well plates using Mx3000PTM Real-time PCR System (Stratagene, La Jolla, Calif.). Quantification was performed by the comparative CT method with 36B4 or Cyclophilin A used for normalization. The primers for lipid synthetic enzymes such as 3-hydroxy-3-methyl-glutaryl-CoA reductase (HMGCoA), serine-palmitoyl transferase 1 (SPT1), fatty acid synthase (FAS), lipid transporters (ATP-binding cassette A12 (ABCA12)), mouse beta defensin 3 (mBD3), sodium-hydrogen exchanger 1 (NHE1), secretary phospholipase A2g2f (sPLA2g2f), filaggrin, involucrin, loricrin and Cyclophilin A are listed in Primer Table 2. Relative expression of the mRNAs compared to control mRNA was calculated. Data are expressed as percentage of control (as 100%).

aged epidermis [4] = experiment: Lamellar body density and secretion (electron microscopy); format: in vivo, mouse
From the text: Skin biopsies from both vehicle and hesperidin-treated mice were taken for electron microscopy. Briefly, samples were minced to <0.5 mm^3, fixed in modified Karnovsky's fixative overnight, and post-fixed in either 0.2% ruthenium tetroxide or 1% aqueous osmium tetroxide, containing 1.5% potassium ferrocyanide. After fixation, all samples were dehydrated in a graded ethanol series, and embedded in an Epon-epoxy mixture. Ultrathin sections were examined, with or without further contrasting with lead citrate, in a Zeiss 10A electron microscope (Carl Zeiss, Thornwood, N.J.), operated at 60 kV.
LB numbers were determined in granular cells two to three layers below the stratum granulosum-stratum corneum (SG-SC) junction as previously described. The number of LBs was counted at 4800 magnification using a calibrated grid. Total 10 random pictures from each biopsy sample were assessed. For quantification of LB secretion, number of LB protrusion at the SG-SC junction were measured at a magnification of 5800 and correlated with the length of the bottom surface of the first SC layer on 10 random images at 5800 magnification.

[5] = tested on: GC-induced epidermal side effects; experiment: Hesperidin co-applications with glucocorticoid (GC): prevention of GC-induced epidermal side effects; format: in vivo
murine skin = experiment: Epidermal mRNA levels of antioxidant enzymes after topical hesperidin; format: in vivo; conditions: topical hesperidin applications
aged mice = experiment: Cholesterol-dominant lipid mixture plus hesperidin on aged mice; format: in vivo, mouse; conditions: 2% hesperidin added to the triple lipid mixture, 18-month old mice, twice daily for 7 days
Procedure: The composition includes a cholesterol-dominant lipid mixture plus hesperidin for the use on aged mice: 18-Month old mice were divided into groups of untreated, lipid mixture+vehicle (70% ethanol) treated, and lipid mixture+2% hesperidin treated. Mice are treated twice daily for 7 days. All measurements are carried out with a MPA5 physiology monitor. Lipid mixture contained cholesterol, fatty acid and ceramide (3:1:1 molar ratio, with cholesterol at 3 moles) at a concentration of 0.74 wt %. Data are normalized to untreated control, setting untreated as 100%.

young normal murine skin = experiment: Topical hesperidin on young normal murine skin; format: in vivo
[6] = Solubility of hesperidin in ethanol; format: physicochemical; conditions: 100% ethanol
normal epidermis = conditions: applied to normal epidermis; cited from earlier work
[7] = aged epidermis, topical hesperidin, Q-PCR
[8] = aged mouse epidermis, topical hesperidin
[9] = aged mouse epidermis, topical hesperidin, Q-PCR
[10] = aged human keratinocyte cultures
[11] = hesperidin co-applications with GC

For `CC(C)CCC[C@@H](C)[C@H]1CC[C@H]2[C@@H]3CC=C4C[C@@H](OS(=O)(=O)O)CC[C@]4(C)[C@H]3CC[C@]12C` [CSO4, Cholesterol sulfate], the pKa [1] is given as 3.1.

With `COc1ccc([C@@H]2CC(=O)c3c(O)cc(O[C@@H]4O[C@H](CO[C@@H]5O[C@@H](C)[C@H](O)[C@@H](O)[C@H]5O)[C@@H](O)[C@H](O)[C@H]4O)cc3O2)cc1O` [hesperidin, (2S)-5-hydroxy-2-(3-hydroxy-4-methoxyphenyl)-7-[(2S,3R,4S,5S,6R)-3,4,5-trihydroxy-6-[[(2R,3R,4R,5R,6S)-3,4,5-trihydroxy-6-methyloxan-2-yl]oxymethyl]oxan-2-yl]oxy-2,3-dihydrochromen-4-one] the “skin surface pH” value (aged murine skin; aged mice, 9 days topical hesperidin, compared with vehicle-treated skin) was “significantly declined”, the “basal transepidermal water loss rates” value (aged murine skin; aged mice, 9 days topical hesperidin, compared with vehicle-treated skin, within normal range of young skin) was “increased slightly” and the “baseline SC hydration” value (aged murine skin; aged mice, after 9 days of topical hesperidin, no different from vehicle) was 58.80±2.27. For the same compound, the barrier recovery (aged murine skin; at both 2 and 4 hours after acute barrier disruption of aged skin) was “significantly accelerated”, the “PCNA-positive cells per cm epidermal length” value (aged epidermis [2]) was 2.45±0.13 cells per cm epidermal length and the Nrf2 expression (aged mouse epidermis; aged epidermis) was “upregulates”. The “NHE1 mRNA levels” value (aged mouse epidermis; [7]) was “marked elevation”, the “sPLA2g2f mRNA levels” value (aged mouse epidermis; [7]) was “marked elevation” and the “epidermal mBD3 mRNA levels” value (aged mouse epidermis; aged mice, hesperidin treatment) was “significantly increased”. The “ABCA12 mRNA expression” value (aged mouse epidermis; [8]) was “marked increase”, the “filaggrin mRNA levels” value (aged mouse epidermis; [8]) was “significantly increased” and the “loricrin mRNA levels” value (aged mouse epidermis; [8]) was “significantly increased”. The “FAS mRNA levels” value (aged mouse epidermis; [9]) was “significantly increased”, the “HMGCoA mRNA levels” value (aged mouse epidermis; [9]) was “significantly increased” and the “SPT1 mRNA levels” value (aged mouse epidermis; [9]) was “significantly increased”. The “ABCA12 mRNA expression” value ([3]; adult keratinocyte cultures) was “marked increase”, the “filaggrin mRNA levels” value ([3]; adult keratinocyte cultures) was “increased” and the “involucrin mRNA levels” value ([3]; adult keratinocyte cultures) was “increased”. The “loricrin mRNA levels” value ([3]; adult keratinocyte cultures) was “increased”, the CAMP/LL37 expression [3, 10] was “markedly upregulated” and the “constitutive hBD2 mRNA expression” value [3, 10] was “no changes”. For the same compound, the “hBD3 mRNA” value [3, 10] was “markedly upregulated”, the “density of lamellar bodies” value (aged epidermis [4]; aged epidermis after hesperidin treatment) was “did not increase” and the “extent of lamellar body secretion” value (aged epidermis [4]; aged epidermis, topical hesperidin treatment, quantitative analyses) was “enhanced”. The “GC-induced inhibition of epidermal proliferation” value ([5]; co-applications of hesperidin with GC) was “prevented”, the “GC-induced impairment of epidermal permeability barrier homeostasis” value [5, 11] was “prevented” and the “GC-induced impairment of stratum corneum (SC) integrity” value [5, 11] was “prevented”. For the same compound, the “epidermal β-glucocerebrosidase activity” value [5, 11] was “enhanced”, the filaggrin expression [5, 11] was “significant increase” and the lamellar bilayer maturation [5, 11] was “accelerated”. The “GC-induced impairment of SC acidification / changes in skin surface pH” value ([5]; hesperidin co-applications with topical GC) was “prevented”, the “epidermal glutathione reductase mRNA levels” value (murine skin) was “increased” and the “epidermal superoxide dismutase mRNA levels” value (murine skin) was “increased”. The pH (aged mice) was “significantly improved (lowered)”, the epidermal differentiation (young normal murine skin) was “stimulation” and the epidermal proliferation (young normal murine skin) was “stimulation”. For the same compound, the “lamellar body (lipid) secretion” value (young normal murine skin) was “enhanced”, the “skin barrier recovery after acute barrier abrogation” value (young normal murine skin) was “significantly accelerated” and the solubility [6] was “not soluble”.

For `CC[C@H](C)C(=O)O[C@H]1C[C@@H](C)C=C2C=C[C@H](C)[C@H](CC[C@@H]3C[C@@H](O)CC(=O)O3)[C@H]21` [lovastatin], the “effect on barrier function” value (normal epidermis) is given as “produces a barrier defect”.
